How the values were obtained:
[1] = In vivo kinetics experiment (radioactivity distribution); set-up: species or system Wistar male rat; settings: rat i.v., mean ± SD
Procedure, shortened: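 Male Wistar rats (9 weeks) under isoflurane received approximately 1 to 3.7 MBq radiotracer in saline with 1 w/v % ascorbic acid by tail-vein injection. At 10, 30 and 60 min, rats were exsanguinated; blood, organs and remaining body weighed and counted, giving % ID/g and adrenal-to-tissue ratios.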

[2] = system: human adrenal gland section expressing aldosterone-producing adenoma; test: In vitro autoradiography using human adrenal adenoma; type: binding; settings: section of FIG. 17(b)
Procedure, shortened: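 Frozen 7-μm sections of human adrenal bearing aldosterone-producing adenoma were immersed 10 min in radioligand (5-33 kBq/mL) in PBS with 1% fatty-acid-free BSA, washed, then exposed to imaging plates for 16-20 h. Equal-area ROI PSL in adenoma (B2) versus normal cortex (B1) gave B2/B1, corrected for nuclide half-life, added activity and exposure time.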

[3] = Plasma stability evaluation (TLC analysis); type: in vitro ADME; settings: 37° C., 60 minutes, TLC analysis
Procedure, shortened: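 Radiolabelled compounds were incubated in heparin-treated pooled normal human plasma at 37° C for 60 minutes. After methanol deproteinization and centrifugation, stability was assessed by TLC under the conditions used for each compound's synthesis.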

For `COc1cc([123I])cc2c1nc(-c1cncc(Cn3ccnc3)c1)n2C1CC1` [[^123I] 609, 1-Cyclopropyl-2-[5-(imidazol-1-ylmethyl)pyridin-3-yl]-6-[^123I]iodo-4-methoxybenzimidazole], the “Adrenal gland/blood ratio of radioactivity accumulation” value (shortened to “Adrenal gland/blood ratio”) ([1]; 10 min after administration) was 70.18 ± 9.10, the “Adrenal gland/fat ratio of radioactivity accumulation” value (shortened to “Adrenal gland/fat ratio”) ([1]; 10 min after administration) was 92.34 ± 17.88 and the “Adrenal gland/kidney ratio of radioactivity accumulation” value (“Adrenal gland/kidney ratio” for short) ([1]; 10 min after administration) was 7.38 ± 1.46. The “Adrenal gland/liver ratio of radioactivity accumulation” value (shortened to “Adrenal gland/liver ratio”) ([1]; 10 min after administration) was 1.55 ± 0.09, the “Adrenal gland/muscle ratio of radioactivity accumulation” value (shortened to “Adrenal gland/muscle ratio”) ([1]; 10 min after administration) was 46.03 ± 17.74 and the “Adrenal gland/small intestine ratio of radioactivity accumulation” value (“Adrenal gland/small intestine ratio” below) ([1]; 10 min after administration) was 5.04 ± 0.97. For the same compound, the “Radioactivity distribution Adrenal gland” value ([1]; 10 min after administration) was 8.54 ± 1.17 % ID/g, the “Radioactivity distribution Bladder (including urine)” value (shortened to “Radioactivity distribution Bladder”) ([1]; 10 min after administration) was 0.17 ± 0.08 % ID/g and the “Radioactivity distribution Blood” value ([1]; 10 min after administration) was 0.12 ± 0.00 % ID/g. The “Radioactivity distribution Fat” value ([1]; 10 min after administration) was 0.09 ± 0.01 % ID/g, the “Radioactivity distribution Femur” value ([1]; 10 min after administration) was 0.37 ± 0.06 % ID/g and the “Radioactivity distribution Heart” value ([1]; 10 min after administration) was 0.36 ± 0.01 % ID/g. For the same compound, the “Radioactivity distribution Kidney” value ([1]; 10 min after administration) was 1.17 ± 0.08 % ID/g, the “Radioactivity distribution Large intestine” value ([1]; 10 min after administration) was 0.16 ± 0.01 % ID/g and the “Radioactivity distribution Liver” value ([1]; 10 min after administration) was 5.50 ± 0.46 % ID/g. The “Radioactivity distribution Lung” value ([1]; 10 min after administration) was 0.51 ± 0.04 % ID/g, the “Radioactivity distribution Muscle (lower limbs)” value ([1]; 10 min after administration) was 0.20 ± 0.06 % ID/g and the “Radioactivity distribution Remaining whole body” value ([1]; 10 min after administration) was 0.20 ± 0.03 % ID/g. The “Radioactivity distribution Small intestine” value ([1]; 10 min after administration) was 1.71 ± 0.18 % ID/g, the “Radioactivity distribution Spleen” value ([1]; 10 min after administration) was 0.82 ± 0.05 % ID/g and the “Radioactivity distribution Stomach” value ([1]; 10 min after administration) was 0.65 ± 0.25 % ID/g. The “Radioactivity distribution Testis” value ([1]; 10 min after administration) was 0.05 ± 0.00 % ID/g, the “Radioactivity distribution Whole brain” value ([1]; 10 min after administration) was 0.02 ± 0.00 % ID/g and the “Adrenal gland/blood ratio” value ([1]; 30 min after administration) was 78.36 ± 23.36. The “Adrenal gland/fat ratio” value ([1]; 30 min after administration) was 110.76 ± 35.85, the “Adrenal gland/kidney ratio” value ([1]; 30 min after administration) was 11.13 ± 2.62 and the “Adrenal gland/liver ratio” value ([1]; 30 min after administration) was 2.54 ± 0.51. For the same compound, the “Adrenal gland/muscle ratio” value ([1]; 30 min after administration) was 66.27 ± 15.78, the “Adrenal gland/small intestine ratio” value ([1]; 30 min after administration) was 2.54 ± 0.80 and the “Radioactivity distribution Adrenal gland” value ([1]; 30 min after administration) was 11.21 ± 3.24 % ID/g. For the same compound, the “Radioactivity distribution Bladder” value ([1]; 30 min after administration) was 0.80 ± 0.10 % ID/g, the “Radioactivity distribution Blood” value ([1]; 30 min after administration) was 0.14 ± 0.01 % ID/g and the “Radioactivity distribution Fat” value ([1]; 30 min after administration) was 0.10 ± 0.02 % ID/g. The “Radioactivity distribution Femur” value ([1]; 30 min after administration) was 0.29 ± 0.04 % ID/g, the “Radioactivity distribution Heart” value ([1]; 30 min after administration) was 0.36 ± 0.02 % ID/g and the “Radioactivity distribution Kidney” value ([1]; 30 min after administration) was 1.00 ± 0.07 % ID/g. For the same compound, the “Radioactivity distribution Large intestine” value ([1]; 30 min after administration) was 0.18 ± 0.03 % ID/g, the “Radioactivity distribution Liver” value ([1]; 30 min after administration) was 4.36 ± 0.46 % ID/g and the “Radioactivity distribution Lung” value ([1]; 30 min after administration) was 0.42 ± 0.05 % ID/g. For the same compound, the “Radioactivity distribution Muscle (lower limbs)” value ([1]; 30 min after administration) was 0.17 ± 0.03 % ID/g, the “Radioactivity distribution Remaining whole body” value ([1]; 30 min after administration) was 0.14 ± 0.01 % ID/g and the “Radioactivity distribution Small intestine” value ([1]; 30 min after administration) was 4.44 ± 0.63 % ID/g. The “Radioactivity distribution Spleen” value ([1]; 30 min after administration) was 0.43 ± 0.03 % ID/g, the “Radioactivity distribution Stomach” value ([1]; 30 min after administration) was 1.27 ± 0.17 % ID/g and the “Radioactivity distribution Testis” value ([1]; 30 min after administration) was 0.07 ± 0.01 % ID/g. For the same compound, the “Radioactivity distribution Whole brain” value ([1]; 30 min after administration) was 0.02 ± 0.00 % ID/g, the “Adrenal gland/blood ratio” value ([1]; 60 min after administration) was 87.48 ± 12.64 and the “Adrenal gland/fat ratio” value ([1]; 60 min after administration) was 147.76 ± 20.75. The “Adrenal gland/kidney ratio” value ([1]; 60 min after administration) was 13.00 ± 2.52, the “Adrenal gland/liver ratio” value ([1]; 60 min after administration) was 3.99 ± 0.57 and the “Adrenal gland/muscle ratio” value ([1]; 60 min after administration) was 103.59 ± 13.53. For the same compound, the “Adrenal gland/small intestine ratio” value ([1]; 60 min after administration) was 1.53 ± 0.14, the “Radioactivity distribution Adrenal gland” value ([1]; 60 min after administration) was 11.04 ± 1.72 % ID/g and the “Radioactivity distribution Bladder” value ([1]; 60 min after administration) was 2.03 ± 0.70 % ID/g. The “Radioactivity distribution Blood” value ([1]; 60 min after administration) was 0.13 ± 0.00 % ID/g, the “Radioactivity distribution Fat” value ([1]; 60 min after administration) was 0.07 ± 0.01 % ID/g and the “Radioactivity distribution Femur” value ([1]; 60 min after administration) was 0.33 ± 0.03 % ID/g. The “Radioactivity distribution Heart” value ([1]; 60 min after administration) was 0.33 ± 0.02 % ID/g, the “Radioactivity distribution Kidney” value ([1]; 60 min after administration) was 0.85 ± 0.03 % ID/g and the “Radioactivity distribution Large intestine” value ([1]; 60 min after administration) was 0.63 ± 0.43 % ID/g. The “Radioactivity distribution Liver” value ([1]; 60 min after administration) was 2.77 ± 0.15 % ID/g, the “Radioactivity distribution Lung” value ([1]; 60 min after administration) was 0.38 ± 0.02 % ID/g and the “Radioactivity distribution Muscle (lower limbs)” value ([1]; 60 min after administration) was 0.11 ± 0.00 % ID/g. For the same compound, the “Radioactivity distribution Remaining whole body” value ([1]; 60 min after administration) was 0.10 ± 0.00 % ID/g, the “Radioactivity distribution Small intestine” value ([1]; 60 min after administration) was 7.17 ± 0.45 % ID/g and the “Radioactivity distribution Spleen” value ([1]; 60 min after administration) was 0.30 ± 0.01 % ID/g. The “Radioactivity distribution Stomach” value ([1]; 60 min after administration) was 1.47 ± 0.33 % ID/g, the “Radioactivity distribution Testis” value ([1]; 60 min after administration) was 0.07 ± 0.01 % ID/g and the “Radioactivity distribution Whole brain” value ([1]; 60 min after administration) was 0.01 ± 0.00 % ID/g. The B2/B1 accumulation ratio [2] was 0.85, the “B2 (PSL value, aldosterone-producing adenoma)” value ([2]; site 71b) was 3805 and the “B1 (PSL value, normal adrenal cortex)” value ([2]; site 72b) was 4479. For the same compound, the “Radiochemical purity after incubation in human plasma” value [3] was 86%.

From US10358434B2, “2-(3-pyridinyl)-1H-benzimidazole derivative compound and medicament containing same” (NIHON MEDI-PHYSICS CO., LTD., priority 2014, dated 2019)
